From patent US4720495A, “Benzo[ij]quinolizine-2-carboxylic acids useful for treating bacterial infection” (priority 1985, dated 1988)
In brackets after ≈: the same amount, converted by molar mass.

Key:
[1] = tested on: Bacillus subtilis ATCC 6633; assay: minimal inhibitory concentration, in vitro antibacterial activity; format: cell-based; conditions: ATCC6633, 37° C., 20 hours
Method: (§1) The in vitro antibacterial activities of typical examples of the present compounds [I] were evaluated in terms of the minimal inhibitory concentration defined as the lowest concentration of the compound preventing the bacterial growth. The Gram-positive bacteria used as test microorganisms included Bacillus subtilis, Staphylococcus aureus and Streptococcus faecalis, and the Gram-negative bacteria used as test microorganisms included Escherichia coli, Enterobacter cloacae, Klebsiella pneumoniae, Proteus vulgaris, Pseudomonas aeruginosa, Serratia marcescens and Salmonella enteritidis. The minimal inhibitory concentration (cultured at 37° C. for 20 hours) was determined according to the standard method prescribed by the Japan Society of Chemotherapy (CHEMOTHERAPY, Vol. 29, No. 1, p. 76, 1981). The following compounds were used as typical examples of the present compounds [I]. At the end of the chemical name of each compound, its tentative designation is given in Parentheses.
(§2) For purposes of comparison, the in vitro antibacterial activities of ofloxacin, OPC-7241 and compound α were evaluated according to the same method as described above and the test results thus obtained are also shown in Table 1.

Enterobacter cloacae 963 = assay: as above; format: cell-based; conditions: 37° C., 20 hours
Method: as §1, §2

Escherichia coli CI-304 [2] = assay: as above; format: cell-based; conditions: CI304, 37° C., 20 hours
Method: as §1, §2

[3] = tested on: Escherichia coli NIHJ JC-2; assay: as above; format: cell-based; conditions: NIHJJC2, 37° C., 20 hours
Method: as §1, §2

[4] = tested on: Klebsiella pneumoniae PCI 602; assay: as above; format: cell-based; conditions: PCI602, 37° C., 20 hours
Method: as §1, §2

[5] = tested on: Proteus vulgaris ATCC 13315; assay: as above; format: cell-based; conditions: ATCC13315, 37° C., 20 hours
Method: as §1, §2

[6] = tested on: Pseudomonas aeruginosa NCTC 10490; assay: as above; format: cell-based; conditions: NCTC10490, 37° C., 20 hours
Method: as §1, §2

[7] = tested on: Salmonella enteritidis G14; assay: as above; format: cell-based; conditions: Salmonella enterica, 37° C., 20 hours
Method: as §1, §2

[8] = tested on: Serratia marcescens IAM 1184; assay: as above; format: cell-based; conditions: IAM1184, 37° C., 20 hours
Method: as §1, §2

[9] = tested on: Staphylococcus aureus FDA 209P JC-1; assay: as above; format: cell-based; conditions: FDA209P, 37° C., 20 hours
Method: as §1, §2

[10] = tested on: Streptococcus faecalis AHU 1085; assay: as above; format: cell-based; conditions: Enterococcus faecalis, AHU1085, 37° C., 20 hours
Method: as §1, §2

[11] = enteral absorbability, serum concentration after oral administration to mice; format: in vivo; conditions: mouse, 50 mg/kg orally, fasted male ICR mice; for concentration at 0.5 h: 30 min.
Method: Using male ICR mice fasted overnight (weighing 20±1 g), the enteral absorbability of some typical examples of the present compounds [I] was tested. This test was carried out by administering 50 mg/kg of each test compound orally to mice and determining its serum concentration 30 minutes, 1 hour, 2 hours and 4 hours after administration. Five mice were used for each test point. At each test point, whole blood was collected from the mice by cardiac puncture and used to prepare serum samples. Concentrations of the test compounds in serum samples were determined by the paper disc method using Escherichia coli CI-304 as the test microorganism.
For purposes of comparison, the enteral absorbability of ofloxacin and OPC-7241 was tested in the same manner as described above and the results thus obtained are also shown in Table 2.

Escherichia coli CI-304 [12] = assay: therapeutic effect on experimentally induced infection in mice; format: in vivo, Escherichia coli CI-304 in male ddY strain mice; conditions: CI304, po, 168 h, orally, one hour after inoculation, survival after 7 days
Method: Using male ddY strain mice infected with Escherichia coli CI-304 (in groups of five; weighing 20±1 g), the therapeutic effect of some typical examples of the present compounds [I] was tested. The therapeutic effect was evaluated by administering each test compound orally to infected mice and calculating ED50 from the number of mice surviving after the lapse of 7 days. Infected mice were prepared by suspending cells of the aforesaid Escherichia coli strain in a 5% mucin solution and injecting this suspension into the peritoneal cavity of mice. The dose of the bacterial cells was ten times the minimal lethal dose which had previously been determined by a preliminary test. One hour after inoculation of the bacterial cells, each test compound was administered orally to the mice.
For purposes of comparison, ofloxacin and OPC-7241 were tested in the same manner as described above and the results thus obtained are also shown in Table 3.

[13] = 1 mg/mouse (equivalent to 50 mg/kg) orally, cited from earlier work
[14] = 50 mg/kg orally, fasted mice, after 30 minutes; cited from earlier work
[15] = tested on: Gram-negative and Gram-positive bacteria; conditions: in vitro tests with Gram-negative and Gram-positive bacteria; cited from earlier work

| SMILES | MIC [1] [µg/mL] | MIC (Enterobacter cloacae 963) [µg/mL] | MIC (Escherichia coli CI-304 [2]) [µg/mL] | MIC [3] [µg/mL] | MIC [4] [µg/mL] | MIC [5] [µg/mL] | MIC [6] [µg/mL] | MIC [7] [µg/mL] | MIC [8] [µg/mL] | MIC [9] [µg/mL] | MIC [10] [µg/mL] | concentration at 0.5 h [11] [ng/mL] | concentration at 1 h [11] [ng/mL] | concentration at 2 h [11] [ng/mL] | concentration at 4 h [11] [ng/mL] | ED50 (Escherichia coli CI-304 [12]) [mg/kg] | residual concentration in the serum ([13]; 2 hours after administration) [µg/mL] | serum concentration ([13]; fasted mice, after 30 minutes) [ng/mL] | degree of absorption into the serum, average peak value [14] [µg/mL] | antibacterial activity [15] |
| --- | --- | --- | --- | --- | --- | --- | --- | --- | --- | --- | --- | --- | --- | --- | --- | --- | --- | --- | --- | --- |
| CC1CC(=O)c2c(N3CCN(C)CC3)c(F)cc3c(=O)c(C(=O)O)cn1c23 (stereo not drawn) [Compound 3, 9-Fluoro-5-methyl-8-(4-methyl-1-piperazinyl)-6,7-dihydro-1,7-dioxo-1H, 5H-benzo[ij]quinolizine-2-carboxylic acid] | 0.1 (≈ 0.268 µM) | 0.2 (≈ 0.536 µM) | 0.1 (≈ 0.268 µM) | 0.2 (≈ 0.536 µM) | 0.1 (≈ 0.268 µM) | 0.2 (≈ 0.536 µM) | 0.78 (≈ 2.09 µM) | 0.78 (≈ 2.09 µM) | 1.56 (≈ 4.18 µM) | 0.39 (≈ 1.04 µM) | 0.78 (≈ 2.09 µM) | 24200 | 22400 | 12600 | 8400 | 0.52 | – | – | – | – |
| CC1CN(c2c(F)cc3c(=O)c(C(=O)O)cn4c3c2C(=O)CC4C)CCN1 (stereo not drawn) [Compound 16, 9-fluoro-5-methyl-8-(3-methyl-1-piperazinyl)-6,7-dihydro-1,7-dioxo-1H, 5H-benzo[ij]quinolizine-2-carboxylic acid] | 0.2 (≈ 0.536 µM) | 0.2 (≈ 0.536 µM) | 0.1 (≈ 0.268 µM) | 0.2 (≈ 0.536 µM) | 0.1 (≈ 0.268 µM) | 0.2 (≈ 0.536 µM) | 0.78 (≈ 2.09 µM) | 0.78 (≈ 2.09 µM) | 1.56 (≈ 4.18 µM) | 0.2 (≈ 0.536 µM) | 0.78 (≈ 2.09 µM) | 16400 | 13600 | 8100 | 4800 | 0.71 | – | – | – | – |
| CC1CN(c2c(F)cc3c(=O)c(C(=O)O)cn4c3c2C=CC4C)CCN1 (stereo not drawn) [Compound 29, 9-Fluoro-5-methyl-8-(3-methyl-1-piperazinyl) -1-oxo-1H, 5H-benzo[ij]quinolizine-2-carboxylic acid] | 0.2 (≈ 0.56 µM) | 0.2 (≈ 0.56 µM) | 0.1 (≈ 0.28 µM) | 0.1 (≈ 0.28 µM) | 0.1 (≈ 0.28 µM) | 0.1 (≈ 0.28 µM) | 1.56 (≈ 4.37 µM) | 0.78 (≈ 2.18 µM) | 0.78 (≈ 2.18 µM) | 0.2 (≈ 0.56 µM) | 0.78 (≈ 2.18 µM) | 15600 | 14400 | 9800 | 4200 | 0.69 | – | – | – | – |
| CC1CN(c2c(F)cc3c(=O)c(C(=O)O)cn4c3c2C(=O)CC4C)CCN1C.Cl.O (stereo not drawn) [Compound 38, 9-fluoro-5-methyl-8-(3,4-dimethyl-1-piperazinyl)-6,7-dihydro-1,7-dioxo-1H,5H-benzo[ij]quinolizine-2-carboxylic acid hydrochloride monohydrate] | 0.1 | 0.2 | 0.1 | 0.2 | 0.1 | 0.1 | 1.56 | 0.78 | 1.56 | 0.78 | 0.78 | 26700 | 24100 | 13500 | 9000 | – | – | – | – | – |
| CC1CCc2c(N3CCN(C)CC3)c(F)cc3c(=O)c(C(=O)O)cn1c23 (stereo not drawn) [OPC-7241, 9-fluoro-6,7-dihydro-5-methyl-8-(4-methyl-1-piperazinyl)-1-oxo-1H, 5H-benzo[ij]quinolizine-2-carboxylic acid, reference compound] | 0.1 (≈ 0.278 µM) | 0.78 (≈ 2.17 µM) | 0.2 (≈ 0.556 µM) | 0.39 (≈ 1.09 µM) | 0.1 (≈ 0.278 µM) | 0.1 (≈ 0.278 µM) | 3.13 (≈ 8.71 µM) | 0.78 (≈ 2.17 µM) | 1.56 (≈ 4.34 µM) | 0.39 (≈ 1.09 µM) | 0.78 (≈ 2.17 µM) | 9300 | 7800 | 4100 | 2200 | 1.7 | – | – | – | – |
| CC1COc2c(N3CCN(C)CC3)c(F)cc3c(=O)c(C(=O)O)cn1c23 (stereo not drawn) [Ofloxacin, 9-fluoro-3-methyl-10-(4-methyl-1-piperazinyl)-7-oxo-2,3-dihydro-7H-pyrido[1,2,3-de][1,4]benzoxazine-6-carboxylic acid, reference compound] | 0.1 (≈ 0.277 µM) | 0.2 (≈ 0.553 µM) | 0.1 (≈ 0.277 µM) | 0.2 (≈ 0.553 µM) | 0.1 (≈ 0.277 µM) | 0.1 (≈ 0.277 µM) | 0.78 (≈ 2.16 µM) | 0.39 (≈ 1.08 µM) | 0.78 (≈ 2.16 µM) | 0.2 (≈ 0.553 µM) | 0.78 (≈ 2.16 µM) | 9000 | 6200 | 2600 | 1200 | 0.9 | 1.5 | 10000 | – | – |
| CCn1cc(C(=O)O)c(=O)c2cc(F)c(N3CCNCC3)cc21 [norfloxacin, 1-ethyl-6-fluoro-1,4-dihydro-7-(1-piperazinyl)-4-oxoquinoline-3-carboxylic acid] | – | – | – | – | – | – | – | – | – | – | – | – | – | – | – | – | – | – | 1 ± 0.6 | excellent antibacterial activity |
